The subject of data set [1] is JNK1 mRNA. The experiment in a line: Northern assay of JNK1 mRNA expression in A549 cells. The data set is classed as cell-based, human. Particulars: for Normalized % Control / RNA % Control / RNA % Inhibition: JNK1 mRNA; for Normalized % Control: chemically modified oligonucleotides; for RNA % Control / RNA % Inhibition: 300 nM for 20 hours then 200 nM for 4 hours. On the procedure:
(§1) In order to evaluate the activity of potential JNK-modulating oligonucleotides, human lung carcinoma cell line A549 (American Type Culture Collection, Rockville, Md. No. ATCC CCL-185) cells or other cell lines as indicated in the Examples, were grown and treated with oligonucleotides or control solutions as detailed below. After harvesting, cellular extracts were prepared and examined for specific JNK mRNA levels or JNK protein levels (i.e., Northern or Western assays, respectively). In all cases, “% expression” refers to the amount of JNK-specific signal in an oligonucleotide-treated cell relative to an untreated cell (or a cell treated with a control solution that lacks oligonucleotide), and “% inhibition” is calculated as
100%−% Expression =% Inhibition.
Northern Assays: The mRNA expression of each JNK protein was determined by using a nucleic acid probe specifically hybridizable thereto. Nucleic acid probes specific for JNK1, JNK2 and JNK3 are described in Examples 3, 4 and 5, respectively. The probes were radiolabelled by means well known in the art (see, e.g., Short Protocols in Molecular Biology, 2nd Ed., Ausubel et al., Eds., John Wiley & Sons, New York, 1992, pages 3-11 to 2-3-44 and 4-17 to 4-18; Ruth, Chapter 6 In: Methods in Molecular Biology, Vol. 26: Protocols for Oligonucleotide Conjugates, Agrawal, ed., Humana Press Inc., Totowa, N.J., 1994, pages 167-185; and Chapter 10 In: Molecular Cloning: A Laboratory Manual, 2nd Ed., Sambrook et al., Eds., pages 10.1-10.70). The blots were stripped and reprobed with a ^32P-labeled glyceraldehyde 3-phosphate dehydrogenase (G3PDH) probe (Clontech Laboratories, Inc., Palo Alto, Calif.) in order to confirm equal loading of RNA and to allow the levels of JNK transcripts to be normalized with regard to the G3PDH signals.
A549 cells were grown in T-75 flasks until 80-90% confluent. At this time, the cells were washed twice with 10 mL of media (DMEM), followed by the addition of 5 mL of DMEM containing 20 μg/mL of LIPOFECTIN™ (i.e., 1:1 (w/w) DOTMA/DOPE, Life Technologies, Gaithersburg, Md.; DOTMA=N-[1-(2,3-dioleyoxy)propyl]-N,N,N-trimethylammonium chloride; DOPE=dioleoyl phosphatidylethanolamine). The oligonucleotides were added from a 10 μM stock solution to a final concentration of 400 nM, and the two solutions were mixed by swirling the flasks. As a control, cells were treated with LIPOFECTIN™ without oligonucleotide under the same conditions and for the same times as the oligonucleotide-treated samples. After 4 hours at 37° C., the medium was replaced with fresh DMEM containing 10% serum. The cells were allowed to recover for 18 hours. Total cellular RNA was then extracted in guanidinium, subject to gel electrophoresis and transferred to a filter according to techniques known in the art (see, e.g., Chapter 7 In: Molecular Cloning: A Laboratory Manual, 2nd Ed., Sambrook et al., Eds., pages 7.1-7.87, and Short Protocols in Molecular Biology, 2nd Ed., Ausubel et al., Eds., John Wiley & Sons, New York, 1992, pages 2-24 to 2-30 and 4-14 to 4-29). Filters were typically hybridized overnight to a probe specific for the particular JNK gene of interest in hybridization buffer (25 mM KPO4, pH 7.4; 5×SSC; 5× Denhardt's solution, 100 μg/ml Salmon sperm DNA and 50% formamide) (Alahari et al., Nucl. Acids Res., 1993, 21, 4079). This was followed by two washes with 1×SSC, 0.1% SDS and two washes with 0.25×SSC, 0.1% SDS. Hybridizing bands were visualized by exposure to X-OMAT AR film and quantitated using a PHOSPHORIMAGER™ essentially according to the manufacturer's instructions (Molecular Dynamics, Sunnyvale, Calif.)
B. JNK1-specific probes: In initial screenings of a set of oligonucleotides derived from the JNK1 sequence (Table 2) for biological activity, a cDNA clone of JNK1 (Derijard et al., Cell, 1994, 76, 1025) was radiolabeled and used as a JNK1-specific probe in Northern blots. […]

Data set [2] relates to JNK1 protein. Description: Western assay of JNK1 protein levels in A549 cells. The data set is classed as cell-based, human. The following applies: 300 nM for 20 hours then 200 nM for 4 hours. On the procedure:
as §1
Western Assays: A549 cells were grown and treated with oligonucleotides as described above. Cells were lysed, and protein extracts were electrophoresed (SDS-PAGE) and transferred to nitrocellulose filters by means known in the art (see, e.g., Chapter 18 In: Molecular Cloning: A Laboratory Manual, 2nd Ed., Sambrook et al., Eds., pages 18.34, 18.47-18.54 and 18.60-18.75)). The amount of each JNK protein was determined by using a primary antibody that specifically recognizes the appropriate JNK protein. The primary antibodies specific for each JNK protein are described in the appropriate Examples. The primary antibodies were detected by means well known in the art (see, e.g., Short Protocols in Molecular Biology, 2nd Ed., Ausubel et al., Eds., John Wiley & Sons, New York, 1992, pages 10-33 to 10-35; and Chapter 18 In: Molecular Cloning: A Laboratory Manual, 2nd Ed., Sambrook et al., Eds., pages 18.1-18.75 and 18.86-18.88) and quantitated using a PHOSPHORIMAGER™ essentially according to the manufacturer's instructions (Molecular Dynamics, Sunnyvale, Calif.).
F. Western Assays: In order to assess the effect of oligonucleotides targeted to JNK1 mRNAs on JNK1 protein levels, Western assays were performed essentially as described above in Example 2, with the following exception(s) and/or modification(s). A primary antibody that specifically binds to JNK1 (catalog No. sc-474-G) was purchased from Santa Cruz Biotechnology, Inc. (Santa Cruz, Calif.; other JNK1-specific antibodies are available from StressGen Biotechnologies, Inc., Victoria, BC, Canada; and Research Diagnostics, Inc., Flanders, N.J.). In this experiment, cells were grown and treated with oligonucleotide at 300 nM for the initial 20 hours and then at 200 nM for 4 hours. At t=48 h, aliquots were removed for Northern and Western analyses, and fresh media was added to the cells. Aliquots for analysis were also taken at t=72 h. The samples from t=48 h and t=72 h were analyzed using the Northern and Western assays described above.

In data set [3] the test system is MDA-MB-231 tumors. The experiment in a line: MDA-MB-231 human breast adenocarcinoma tumors in nude mice. In kind it is in vivo. The following applies: MDA-MB-231 tumors, 25 mg/kg intravenous once daily. An excerpt: Approximately 5×10^6 breast adenocarcinoma cells (cell line MDA-MB-231; American Type Culture Collection, Richmond, Va., No. ATCC HTB-26) were implanted subcutaneously in the right inner thigh of nude mice (n=6 for each of three sets of mice). Oligonucleotides ISIS 15346 (JNK1, SEQ ID NO: 16) and 15353 (JNK2, SEQ ID NO: 31) were suspended in saline and administered once daily to two sets of mice on the first day the tumor volume was about […]. A saline-only (0.9% NaCl) solution was given to a third set of animals as a control. Oligonucleotides were given by intravenous injection at a dosage of 25 mg/kg. Tumor size was measured and tumor volume was calculated on days 12, 19, 26 and 33 following tumor cell inoculation.

Data set [4] relates to HUVEC. The experiment in a line: Apoptosis in HUVEC (percent hypodiploid cells, flow cytometry). Particulars: for effect on JNK2 oligonucleotide-induced cell death (apoptosis): HUVEC treated with JNK2 oligonucleotide plus the inhibitor. In kind it is cell-based, human.

Values joined by “and” are separate entries in the source; they are usually repeats but may differ in a detail not shown here. Equal entries are not always repeated. Where two headings read alike, the source gives them in different places. Where a SMILES comes first, the peptide text is derived from it. The star is where a group is joined. e = 2'-O-(2-methoxyethyl) (MOE); [5mC] = 5-methylcytosine; Cbz = O=C(OCc1ccccc1)*; d = 2'-deoxy (DNA); CH2F = FC*

As for “15346 (antisense CTCTCTGTAGGCCCGCTTGG; sugars from the 5' end e5 d9 e6, [5mC] at 1, 3, 5, 16, all phosphorothioate, methylation of C not given here) [compound 15346]”, the entries for the “Normalized % Control” value in data set [1] (dose 100 nM) and in data set [1] (dose 400 nM) were 22.6% and 11.0%, respectively. Also, the “RNA % Control” value in data set [1] (t = 48 h) was determined as 4.3%; in data set [1] (t = 72 h), 10.6%. The “inhibition of JNK1 mRNA expression” value in data set [1] (chemically modified derivatives of ISIS 12539, 400 nM (Table 5)) is “at least 88%”. The “Protein % Control” value was determined as 42.7% in data set [2] (t = 48 h) and 25.7% in data set [2] (t = 72 h). In addition, the “tumor growth compared to the saline control” value in data set [3] is recorded as “inhibited tumor growth”.

As to “15351 (antisense CTCTCTGTAGGCCCGCTTGG; sugars from the 5' end e11 d9, [5mC] at 1, 3, 5, linkages o10 s9 (s phosphorothioate, o phosphodiester), methylation of C not given here) [compound 15351]”, the “Normalized % Control” value in data set [1] (dose 100 nM) stood at 45.1%; in data set [1] (dose 400 nM), 39.8%. Besides, the “RNA % Control” value is given as 26.9% in data set [1] (t = 48 h) and 46.1% in data set [1] (t = 72 h). The figures for the “RNA % Inhibition” value in data set [1] (t = 48 h) and in data set [1] (t = 72 h) were 73.1% and 53.9%, respectively. For the same molecule, the “Protein % Control” value in data set [2] (t = 48 h) is given as 52.4%; in data set [2] (t = 72 h) it was 37.0%.

As for `C[C@@H]1C[C@@H]([C@H](O)CC2CC(=O)NC(=O)C2)C(=O)[C@@H](C)C1` [cyclohexamide, reference compound], the “effect on JNK2 oligonucleotide-induced cell death (apoptosis)” value in data set [4] is given as “no effect”.

For `COC(=O)C[C@H](NC(=O)[C@H](C)NC(=O)[C@@H](NC(=O)OCc1ccccc1)C(C)C)C(=O)CF` [z-FAD.fmk, z-VAD.fmk, reference compound] (Cbz-Val-Ala-Asp(OMe)-CH2F), the “effect on JNK2 oligonucleotide-induced cell death (apoptosis)” value in data set [4] is recorded as “decreased”.

For “CTTTCCGTTGGACCCCTGGG (phosphorothioate, 2'-MOE gapmer, further chemistry not given here) [ISIS 18076, scrambled control for ISIS 15346; 2′-methoxyethoxy gapmer, phosphorothioate throughout, reference compound]”, the “percent hypodiploid cells (a measure of apoptosis)” value (shortened to “percent hypodiploid cells”) in data set [4] is 8% and 10% and 11%.

Take “C^ST^SC^ST^SC^ST^SG^ST^SA^SG^SG^SC^SC^SC^SG^SC^ST^ST^SG^SG (antisense CTCTCTGTAGGCCCGCTTGG; DNA, all phosphorothioate, methylation of C not given here) [ISIS 15346, JNK1 gapmer: P═S, 2′-MOE wings; P═S, 2′-deoxy core]”: the “percent hypodiploid cells” value worked out at 8% in data set [4] (HUVEC, Oligo + Cyclohexamide); 14% in data set [4] (HUVEC, Oligo + TNFa (10 ng/ml)); 5% in data set [4] (HUVEC, Oligo + z-VAD.fmk); 13% in data set [4] (HUVEC, Oligo alone).

As for “GTGCGCGCGAGCCCGAAATC (phosphorothioate, 2'-MOE gapmer, further chemistry not given here) [ISIS 18078, scrambled control for ISIS 15353; 2′-methoxyethoxy gapmer, phosphorothioate throughout, reference compound]”, the “percent hypodiploid cells” value in data set [4] was 11% and 12% and 9%.
